Source: patent publication US6177438A, “Morphinan derivatives and pharmaceutical use thereof” (priority 1993, dated 2001)
Where a name gives a salt, the structure may show the parent alone. Read-outs that look alike come from different tables or passages of the source.

Legend:
[1] = tested on: cultured nerve cells (cerebral cortex); assay: cells; conditions: Rattus norvegicus, Cerebral cortex neuron, 24 h, read-out: ED50 (protection against glutamic acid toxicity)
[2] = tested on: cultured nerve cells (cerebral cortex); conditions: 10 mM glutamic acid, 24 hours
[3] = tested on: acetic acid-induced writhing in ddy mice; assay: animal or person; type: in vivo, 5 week old ddy mice; conditions: for ED50: s.c. 15 minutes before acetic acid; for analgesic activity: s.c., in words
Protocol: 5 week old ddy mice were used in this test. After intraperitoneal administration of 0.1 ml of 0.6% aqueous acetic acid per 10 g of body weight, the number of writhing reactions that occurred in 10 minutes starting 10 minutes after administration was evaluated for the indicator. The test drug was administered subcutaneously into the backs of the animals 15 minutes before administration of acetic acid.

μ receptor = target: T1, μ receptor (Mus musculus, UniProt P42866); assay: Opioid activity test using an extracted mouse vas deferens preparation, Ke with naloxone; parameters: species or system male ddy mouse; conditions: naloxone added
T1 construct: naloxone as mu antagonist (printed 'agonist')
Protocol: (§1) A male ddy mouse was used in this test. The vas deferens extracted from the animal was suspended in a Magnus tube filled with Krebes-Henseleit solution (NaCl 118 mM; KCl 4.7 mM; CaCl2 2.5 mM; KH2 PO4 1.1 mM; NaHCO3 25 mM; Glucose 11 mM) warmed to 37° C. and ventilated with 5% carbon dioxide and 95% oxygen. Electrical stimulus was performed at 0.1 Hz for 5.0 ms by means of ring-shaped platinum electrodes located above and below. Tissue contractions were recorded on a polygraph using an isometric transducer.
(§2) After adequately washing with nutrient solution and the contraction reaction stabilized, the μ agonist, naloxone, the δ agonist, NTI, or the κ agonist, norBNI, was added after which the test compound was again cumulatively added after roughly 20 minutes. The Ke value was calculated using the following calculation formula from the difference in the efficacies of both agonists.
(§3) Ke=[Conc. of added agonist]/(IC50 ratio-1)
(§4) IC50 ratio=IC50 in the presence of agonist/IC50 in the absence of agonist

[4] = tested on: extracted mouse vas deferens preparation; assay: Opioid activity test using an extracted mouse vas deferens preparation (suppression of electrically induced contractions); parameters: species or system male ddy mouse; conditions: electrical stimulus 0.1 Hz, 37° C.
Protocol: as §1, §2

[5] = Diuretic action (urine output for 5 hours after physiological saline loading in rats); type: in vivo, male Wistar rats; conditions: for ED (200% urine output) / ED (500% urine output): Rattus norvegicus, sc, 5 hours after saline 20 ml/kg p.o.; for ED (200% urine output): dose giving urine output of 200 (non-dosed group = 100); for ED (500% urine output): dose giving urine output of 500 (non-dosed group = 100); for Diuretic action (in words): s.c., from ED200 values
Outline: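 Doses reported as ED200/ED500, i.e. those raising 5 h urine output to 200 or 500 versus undosed rats set at 100. Subcutaneous dosing preceded an oral 20 ml/kg saline load by 30 min; male Wistar rats, 7-8 weeks, deprived of water 1 h beforehand.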

δ receptor = target: T2, δ receptor (Mus musculus, UniProt P32300); parameters: species or system male ddy mouse
T2 construct: The vas deferens extracted from the animal was suspended in a Magnus tube; from tissue; host or cells: mouse (male ddy) vas deferens

κ receptor = target: T3, κ receptor (Mus musculus, UniProt P33534); assay: Opioid activity test using an extracted mouse vas deferens preparation, Ke with norBNI; parameters: species or system male ddy mouse; conditions: for receptor selectivity of agonist (κ): in words; for Ke, norBNI: κ, norBNI added
T3 construct: from tissue; host or cells: mouse (male ddy) vas deferens
Protocol: as §1, §2, §3, §4

[6] = Mus musculus, sc, read-out: ED50
[7] = mouse vas deferens, δ, NTI added

T2 sequence (P32300 whole entry): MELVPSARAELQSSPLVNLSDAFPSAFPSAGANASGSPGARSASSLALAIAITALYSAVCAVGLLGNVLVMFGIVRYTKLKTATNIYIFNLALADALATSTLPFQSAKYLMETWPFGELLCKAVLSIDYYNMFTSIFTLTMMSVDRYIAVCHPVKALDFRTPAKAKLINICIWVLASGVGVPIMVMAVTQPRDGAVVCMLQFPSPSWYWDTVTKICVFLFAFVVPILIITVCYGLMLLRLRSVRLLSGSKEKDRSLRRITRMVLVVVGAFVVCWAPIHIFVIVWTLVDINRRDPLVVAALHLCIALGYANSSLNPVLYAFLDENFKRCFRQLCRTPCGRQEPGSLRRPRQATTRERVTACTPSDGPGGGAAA
T1 sequence (P42866 whole entry): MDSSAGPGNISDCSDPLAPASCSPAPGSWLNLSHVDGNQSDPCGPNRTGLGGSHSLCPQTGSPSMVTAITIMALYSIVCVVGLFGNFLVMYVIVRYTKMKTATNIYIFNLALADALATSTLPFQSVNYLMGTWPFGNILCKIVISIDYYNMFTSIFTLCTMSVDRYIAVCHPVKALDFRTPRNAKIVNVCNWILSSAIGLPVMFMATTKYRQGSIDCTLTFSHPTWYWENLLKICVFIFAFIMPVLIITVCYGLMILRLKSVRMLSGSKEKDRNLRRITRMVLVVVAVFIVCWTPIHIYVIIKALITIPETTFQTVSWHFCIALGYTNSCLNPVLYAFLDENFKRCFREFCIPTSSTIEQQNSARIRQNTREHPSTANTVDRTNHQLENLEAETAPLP
T3 sequence (P33534 whole entry): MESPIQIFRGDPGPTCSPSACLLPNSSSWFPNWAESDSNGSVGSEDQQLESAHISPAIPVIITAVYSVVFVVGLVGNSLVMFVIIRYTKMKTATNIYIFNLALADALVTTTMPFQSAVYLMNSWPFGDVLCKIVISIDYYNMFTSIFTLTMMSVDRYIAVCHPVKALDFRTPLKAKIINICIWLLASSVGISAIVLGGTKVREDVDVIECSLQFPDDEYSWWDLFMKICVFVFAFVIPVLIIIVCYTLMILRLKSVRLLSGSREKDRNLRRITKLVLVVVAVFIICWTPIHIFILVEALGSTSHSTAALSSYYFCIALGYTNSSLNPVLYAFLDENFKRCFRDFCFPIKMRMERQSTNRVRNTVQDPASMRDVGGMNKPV

Row | SMILES | EC50 [1] [nM] | Protective action against cytotoxicity caused by glutamic acid (in words) [2] | ED50 [3, 6] [µg/kg] | Ke, Naloxone (μ receptor) [nM] | IC50 [4] [nM] | ED (200% urine output) [5] [µg/kg] | ED (500% urine output) [5] [µg/kg] | Ke, NTI (δ receptor; [7]) [nM] | receptor selectivity of agonist (κ) (κ receptor) | Ke, norBNI (κ receptor) [nM] | ED50 [3] [µg/kg] | Ke, NTI (δ receptor) [nM] | analgesic activity [3] | Diuretic action (in words) [5] | receptor selectivity of agonist (δ) (δ receptor; mouse vas deferens, in words)
1 | CN(CCc1ccc(Cl)c(Cl)c1)[C@@H]1CC[C@@]2(O)[C@H]3Cc4ccc(O)c5c4[C@@]2(CCN3CC2CC2)[C@H]1O5 [Compound 136, 17-Cyclopropylmethyl-3,14β-dihydroxy-4,5α-epoxy-6β-[N-methyl-N-2-(3,4-dichlorophenyl)ethylamino]morphinan.cndot.1.9 hydrochloride] | 640 | clearly demonstrated action that protects nerve cells from cytotoxicity caused by glutamic acid |  |  |  |  |  |  |  |  |  |  |  |  | 
2 | CO[C@@H](C(=O)N(C)[C@H]1CC[C@@]2(O)[C@H]3Cc4ccc(O)c5c4[C@@]2(CCN3CC2CC2)[C@H]1O5)c1ccccc1 [Compound 30, 17-cyclopropylmethyl-3,14β-dihydroxy-4,5α-epoxy-6α-[(R)-N-methylmethoxyphenylacetamido]morphinan.cndot.hydrochloride] | 7950 | clearly demonstrated action that protects nerve cells from cytotoxicity caused by glutamic acid |  |  |  |  |  |  |  |  |  |  |  |  | 
3 | COc1cccc(C#CC(=O)N(C)[C@@H]2CC[C@@]3(O)[C@H]4Cc5ccc(O)c6c5[C@@]3(CCN4CC3CC3)[C@H]2O6)c1.O=C(O)C(O)C(O)C(=O)O [Compound 173, 17-cyclopropylmethyl-3,14β-dihydroxy-4,5α-epoxy-6β-[N-methyl-3-(3-methoxyphenyl)propiolamido]morphinan tartrate] |  |  | 11 | 19.6 | 0.02 | 27.5 | 1550 | 21.3 | selective agonists for κ receptors | 0.11 |  |  |  |  | 
4 | CN(C(=O)CCCc1ccccc1)[C@@H]1CC[C@@]2(O)[C@H]3Cc4ccc(O)c5c4[C@@]2(CCN3CC2CC2)[C@H]1O5 [Compound 150, 17-cyclopropylmethyl-4,5α-epoxy-3,14β-dihydroxy-6β-(N-methyl-4-phenylbutanoylamido)morphinan tartrate] |  |  | 35 | 137 | 1.67 | 42.9 | 762 | 55.6 | selective agonists for κ receptors | 0.303 |  |  |  |  | 
5 | CN(C(=O)CSc1ccccc1)[C@H]1CC[C@@]2(O)[C@H]3Cc4ccc(O)c5c4[C@@]2(CCN3CC2CC2)[C@H]1O5 [Compound 45, 17-cyclopropylmethyl-4,5α-epoxy-3,14β-dihydroxy-6α-(N-methylthiophenoxyacetamido)morphinan.cndot.tartrate] |  |  |  | 26.5 | 0.185 | 8.1 | 857 | 135 | selective agonists for κ receptors | 0.416 | 3.8 |  |  |  | 
6 | CN(C(=O)/C=C/c1ccoc1)[C@H]1CC[C@@]2(O)[C@H]3Cc4ccc(O)c5c4[C@@]2(CCN3CC2CC2)[C@H]1O5 [Compound 89, 17-cyclopropylmethyl-3,14β-dihydroxy-4,5α-epoxy-6α-[N-methyl-trans-3-(3-furyl)acrylamido]morphinan.cndot.tartrate] |  |  | 4.71 | 18.3 | 0.0934 | 1.2 | 16.2 |  | selective agonists for κ receptors | 0.85 |  | 15.6 |  |  | 
7 | CN(C(=O)COc1ccccc1)[C@H]1CC[C@@]2(O)[C@H]3Cc4ccc(O)c5c4[C@@]2(CCN3CC2CC2)[C@H]1O5 [Compound 38, 17-cyclopropylmethyl-3,14β-dihydroxy-4,5α-epoxy-6α-(N-methylphenoxyacetamido)morphinan.cndot.hydrochloride] |  |  | 3.52 | 411 | 0.349 | 3.8 | 281 | 16.6 | selective agonists for κ receptors | 4.65 |  |  |  |  | 
8 | CN(C(=O)/C=C/c1cccc(F)c1)[C@H]1CC[C@@]2(O)[C@H]3Cc4ccc(O)c5c4[C@@]2(CCN3CC2CC2)[C@H]1O5 [Compound 96, 17-cyclopropylmethyl-3,14β-dihydroxy-4,5α-epoxy-6α-(N-methyl-3-fluorocinnamamido)morphinan.cndot.tartrate] |  |  | 0.86 | 32.5 | 0.346 | 1.3 | 54.9 | 1.61 |  | 4.21 |  |  | particularly strong analgesic activity |  | 
9 | CN(C(=O)OCc1ccc([N+](=O)[O-])cc1)[C@H]1CC[C@@]2(O)[C@H]3Cc4ccc(O)c5c4[C@@]2(CCN3CC2CC2)[C@H]1O5 [Compound 43, 17-cyclopropylmethyl-3,14β-dihydroxy-4,5α-epoxy-6α-(N-methyl-4-nitrobenzyloxycarbamido)morphinan.cndot.hydrochloride] |  |  | 5.5 | 409 | 0.65 | 0.54 | 4.4 | 22.5 | selective agonists for κ receptors | 5.31 |  |  |  | extremely strong diuretic action | 
10 | CN(C(=O)/C=C/c1cccc([N+](=O)[O-])c1)[C@H]1CC[C@@]2(O)[C@H]3Cc4ccc(O)c5c4[C@@]2(CCN3CC2CC2)[C@H]1O5 [Compound 97, 17-cyclopropylmethyl-3,14β-dihydroxy-4,5α-epoxy-6α-(N-methyl-3-nitrocinnamamido)morphinan.cndot.phosphate] |  |  | 1.9 | 163 | 0.247 | 4.5 | 93.9 | 2.92 |  | 13.9 |  |  |  |  | selective agonists for δ receptors
11 | CN(C(=O)CCc1ccccc1)[C@H]1CC[C@@]2(O)[C@H]3Cc4ccc(O)c5c4[C@@]2(CCN3CC2CC2)[C@H]1O5 [Compound 22, 17-Cyclopropylmethyl-4,5α-epoxy-3,14β-dihydroxy-6α-(N-methyl-3-phenylpropionamido)morphinan.cndot.tartrate] |  |  | 5.1 | 800 | 1.2 | 0.95 | 17 | 545 | selective agonists for κ receptors | 5.53 |  |  |  | extremely strong diuretic action | 
12 | CCCCOC(=O)N(C)[C@H]1CC[C@@]2(O)[C@H]3Cc4ccc(O)c5c4[C@@]2(CCN3CC2CC2)[C@H]1O5 [Compound 47, 17-cyclopropylmethyl-4,5α-epoxy-3,14β-dihydroxy-6α-(N-methylbutyroxycarbamido)morphinan.cndot.tartrate] |  |  | 0.52 | 63.5 | 0.439 | 1.6 |  | 10.4 | selective agonists for κ receptors | 0.140 |  |  | particularly strong analgesic activity |  | 
13 | CCCCOC(=O)N(C)[C@@H]1CC[C@@]2(O)[C@H]3Cc4ccc(O)c5c4[C@@]2(CCN3CC2CC2)[C@H]1O5 [Compound 59, 17-cyclopropylmethyl-3,14β-dihydroxy-4,5α-epoxy-6β-(N-methylbutyroxycarbamido)morphinan.cndot.tartrate] |  |  | 2.8 | 21.3 | 1.14 | 10.5 | 2360 | 47.3 | selective agonists for κ receptors | 0.151 |  |  |  |  | 
